In brackets after ≈: the same amount, converted by molar mass.
Key:
[1] = Lipophilicity determination by RP-TLC; assay type: physicochemical; parameters: key to RM (MeOH:H2O): RM = log(1/RF - 1), from RP-18 TLC; conditions: for RM (MeOH:H2O): 72:28 MeOH:H2O; for RM (pH 7.4): 72:28 MeOH:NaOAc buffer (pH 7.4)
Protocol: RM values were determined from the RP-18 TLC measurements. […] The volatiles were carefully evaporated, and the plate was developed by MeOH (100%) or MeOH: H2O-HPLC (72:28 v/v) or MeOH: NaOAc buffer, pH 7.4 (72:28 v/v). After drying, the spots were visualized under UV (λ = 365 nm). RM data were obtained from equation: RM = log(1/RF-1). Each experiment was repeated three times.

[2] = RP-HPLC, 72:28 MeOH:H2O
[3] = system: Mycobacterium tuberculosis H37Ra/ATCC 25177; assay: In vitro antimycobacterial evaluation; assay type: cell-based; conditions: M. tuberculosis H37Ra
Description: Isoniazid (Sigma) was used as the standard.

[4] = system: methicillin-resistant Staphylococcus aureus (MRSA) SA 630; assay: In vitro antibacterial evaluation, broth microdilution MIC, MRSA isolate SA 630; assay type: cell-based; conditions: clinical isolate MRSA SA 630
[5] = system: THP1-Blue™ NF-κB cell line; assay: In vitro cell viability assay (WST-1); assay type: cell-based; conditions: Homo sapiens; THP1-Blue NF-κB cells, 24 h incubation, WST-1, mean ± SEM, n = 6; read-out: Tox IC50 ± SEM
Protocol: The cytotoxic effect of the tested compounds was specified on THP1-Blue™ NF-κB cell line (Invivogen; San Diego, CA, USA), as described previously. […] The final concentration of DMSO was 0.1% (v/v) in each well. The viability analysis was performed after 24 h incubation with the tested substances using the WST-1 Cell Proliferation Reagent kit (Roche Diagnostics, Basel, Switzerland) according to the manufacturer’s manual. […] The IC50 values were calculated by four-parameter logistic (4PL) analysis from obtained viability curves by GraphPad Prism 8.0.1 (San Diego, CA, USA) software.

[6] = system: methicillin-resistant Staphylococcus aureus (MRSA) 63718; assay: In vitro antibacterial evaluation, broth microdilution MIC, MRSA isolate 63718; assay type: cell-based; conditions: clinical isolate MRSA 63718
[7] = system: Staphylococcus aureus ATCC 29213; assay: In vitro antibacterial evaluation, broth microdilution MIC, reference strain; assay type: cell-based; conditions: Staphylococcus aureus, ATCC29213; S. aureus ATCC 29213
[8] = system: NF-κB in THP1-Blue™ NF-κB cells; assay: Determination of NF-κB activity after LPS stimulation (Quanti-Blue); assay type: cell-based, human; conditions: 1 µM compound, LPS 1 µg/mL
Protocol: To evaluate the anti-inflammatory potential of novel compounds, their ability to attenuate the lipopolysaccharide (LPS)-activated pro-inflammatory transcription nuclear factor (NF)-κB was measured as was described previously. Briefly, THP1-Blue™ NF-κB cells were pretreated by tested compounds dissolved in DMSO in the non-toxic concentration 1 µM for 1 h. After LPS (1 µg/mL) stimulation, the NF-κB activity was evaluated by Quanti-Blue medium (Invivogen) according to the manufacturer’s instructions. The results from 3 independent experiments performed in triplicate (n = 9) were analyzed by GraphPad Prism 8.0.1 software. The outlaying values were excluded by ROUT algorithms (Q = 5%).
Figure 1 Effect of tested compounds on activity of transcription factor NF-κB. […] Then, lipopolysaccharide (LPS) 1 µg/mL was added to trigger the NF-κB activation. The activity of NF-κB was measured 24 h after LPS stimulation using QuantiBlue™ assay. The graph represents mean ± SEM (n = 9). […] Groups were compared with the help of the one-way ANOVA test followed by Fisher’s LSD multiple comparison test. * indicates statistical significance (p < 0.05) to DMSO group; ** indicates statistical significance (p < 0.01) to DMSO group; *** indicates statistical significance (p < 0.001) to DMSO group; **** indicates statistical significance (p < 0.0001) to DMSO group. CA—cinnamic acid.

[9] = 1 h pretreatment, 24 h, vs DMSO group

| SMILES | RM (MeOH:H2O) [1] | RM (pH 7.4) [1] | RM (100% MeOH) [1] | Logk [2] | MIC [3] [µM] | MIC [4] [µM] | IC50 [5] [µM] | MIC [6] [µM] | MIC [7] [µM] | chromatographic logD (physchem; pH 6.5) | chromatographic logD (physchem; pH 7.4) | decrease of NF-κB activity [8, 9] | anti-inflammatory potential (LPS-induced NF-κB activation), in words [8] | increase of NF-κB activity [8, 9] |
| --- | --- | --- | --- | --- | --- | --- | --- | --- | --- | --- | --- | --- | --- | --- |
| O=C(/C=C/c1ccccc1)Nc1cc(Cl)c(Cl)c(Cl)c1 [Compound 6, (2E)-3-Phenyl-N-(3,4,5-trichlorophenyl)prop-2-enamide] | 1.0852 | 1.1306 | −0.1870 | 0.9671 | > 395 | > 790 | > 20 | > 790 | > 790 | 0.99 | 1.01 | – | – | – |
| O=C(/C=C/c1ccccc1)Nc1c(Br)cc(F)c(Cl)c1Br [Compound 20, (2E)-N-(2,6-Dibromo-3-chloro-4-fluorophenyl)-3-phenylprop-2-enamide] | 0.4320 | 0.4138 | −0.5541 | 0.3139 | > 298 | > 595 | > 20 | > 595 | > 595 | 0.37 | 0.392 | approximately 9% | more potent than the parental cinnamic acid | – |
| O=C(/C=C/c1ccccc1)Nc1ccc(Br)c(F)c1 [Compound 9, (2E)-N-(4-Bromo-3-fluorophenyl)-3-phenylprop-2-enamide] | 0.6797 | 0.6895 | −0.4081 | 0.5025 | > 403 | 805 (≈ 258 µg/mL) | > 20 | > 805 | > 805 | 0.541 | 0.56 | – | – | – |
| O=C(/C=C/c1ccccc1)Nc1ccc(Br)c(Cl)c1 [Compound 11, (2E)-N-(4-Bromo-3-chlorophenyl)-3-phenylprop-2-enamide] | 0.8388 | 0.8181 | −0.3376 | 0.6611 | > 383 | 192 (≈ 64.6 µg/mL) | 6.5 ± 1 | 192 (≈ 64.6 µg/mL) | > 766 | 0.691 | 0.713 | – | – | – |
| O=C(/C=C/c1ccccc1)Nc1cc(Cl)ccc1F [Compound 8, (2E)-N-(5-Chloro-2-fluorophenyl)-3-phenylprop-2-enamide] | 0.5411 | 0.5495 | −0.4711 | 0.3692 | > 465 | > 931 | > 20 | > 931 | 931 (≈ 257 µg/mL) | 0.415 | 0.433 | – | – | – |
| O=C(/C=C/c1ccccc1)Nc1c(Br)cc(C(F)(F)F)cc1Br [Compound 19, (2E)-N-[2,6-Dibromo-4-(trifluoromethyl)phenyl]-3-phenylprop-2-enamide] | 0.5301 | 0.3733 | −0.5206 | 0.4321 | > 287 | > 574 | > 20 | > 574 | > 574 | 0.473 | 0.494 | – | – | – |
| O=C(/C=C/c1ccccc1)Nc1ccc(Br)cc1C(F)(F)F [Compound 16, (2E)-N-[4-Bromo-2-(trifluoromethyl)phenyl]-3-phenylprop-2-enamide] | 0.5730 | 0.4273 | −0.5624 | 0.4683 | > 348 | > 696 | > 20 | > 696 | > 696 | 0.51 | 0.532 | – | – | – |
| O=C(/C=C/c1ccccc1)Nc1cc(F)c(F)c(F)c1 [Compound 3, (2E)-3-Phenyl-N-(3,4,5-trifluorophenyl)prop-2-enamide] | 0.6074 | 0.5495 | −0.4206 | 0.4893 | > 462 | > 924 | > 20 | > 924 | 462 (≈ 128 µg/mL) | 0.527 | 0.549 | – | – | – |
| O=C(/C=C/c1ccccc1)Nc1ccc(Cl)cc1C(F)(F)F [Compound 15, (2E)-N-[4-Chloro-2-(trifluoromethyl)phenyl]-3-phenylprop-2-enamide] | 0.5305 | 0.3219 | −0.6102 | 0.4113 | > 394 | > 788 | > 20 | > 788 | > 788 | 0.454 | 0.474 | – | – | – |
| O=C(/C=C/c1ccccc1)Nc1ccc([N+](=O)[O-])cc1C(F)(F)F [Compound 17, (2E)-N-[4-Nitro-2-(trifluoromethyl)phenyl]-3-phenylprop-2-enamide] | 0.4998 | 0.4311 | −0.5633 | 0.3794 | > 381 | > 762 | > 20 | > 762 | > 762 | 0.399 | 0.443 | – | – | – |
| NNC(=O)c1ccncc1 [INH, isoniazid, reference compound] | – | – | – | – | 36.6 (≈ 5.02 µg/mL) | – | – | – | – | – | – | – | – | – |
| CC1(C)S[C@@H]2[C@H](NC(=O)[C@H](N)c3ccccc3)C(=O)N2[C@H]1C(=O)O [AMP, ampicillin, reference compound] | – | – | – | – | – | 45.8 (≈ 16 µg/mL) | – | 45.8 (≈ 16 µg/mL) | – | – | – | – | – | – |
| O=C(/C=C/c1ccccc1)Nc1ccc(Cl)cc1Br [Compound 12, (2E)-N-(2-Bromo-4-chlorophenyl)-3-phenylprop-2-enamide] | 0.6553 | 0.6484 | −0.4072 | 0.5476 | > 383 | > 766 | > 20 | > 766 | > 766 | 0.586 | 0.606 | – | – | – |
| O=C(/C=C/c1ccccc1)Nc1ccc(Cl)cc1Cl [Compound 4, (2E)-N-(2,4-Dichlorophenyl)-3-phenylprop-2-enamide] | 0.6546 | 0.5495 | −0.3933 | 0.5278 | – | > 880 | > 20 | > 880 | > 880 | 0.569 | 0.589 | – | – | 10–15% |
| O=C(/C=C/c1ccccc1)Nc1ccc(Br)cc1Br [Compound 7, (2E)-N-(2,4-Dibromophenyl)-3-phenylprop-2-enamide] | 0.7331 | 0.7295 | −0.3098 | 0.6152 | > 339 | > 677 | > 20 | > 677 | > 677 | 0.652 | 0.67 | – | – | – |
| O=C(/C=C/c1ccccc1)Nc1cc(Cl)c(Cl)cc1Cl [Compound 5, (2E)-3-Phenyl-N-(2,4,5-trichlorophenyl)prop-2-enamide] | 0.9695 | 0.9832 | −0.2497 | 0.8373 | – | > 790 | > 20 | > 790 | > 790 | 0.865 | 0.888 | – | – | 10–15% |

— PMC7570544, “Biological Activities and ADMET-Related Properties of Novel Set of Cinnamanilides” (Molecules, 2020)
